Experiments:
[1] = biological target: T1, human mPGES-1 (Homo sapiens, UniProt O14684); assay: Test for mPGES-1 inhibitory activity; type: biochemical; conditions: microsomes of COS-1 cells expressing human mPGES-1; PGH2 1 μM; 4° C.; PGE2 by EIA; read-out: IC50 value (mPGES-1 inhibition)
T1 construct: expressed in transfected cells; host or cells: COS-1 cells (microsomal fraction)
T1 sequence (O14684 1-152): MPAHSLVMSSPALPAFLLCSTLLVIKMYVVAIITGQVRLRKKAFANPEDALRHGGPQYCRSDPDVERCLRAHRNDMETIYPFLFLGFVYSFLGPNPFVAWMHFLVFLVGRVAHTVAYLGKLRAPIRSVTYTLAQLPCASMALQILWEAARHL
Method: Microsomes were prepared from COS-1 cells transiently transfected with a plasmid containing human mPGES-1 cDNA, and used as mPGES-1 enzyme. The mPGES-1 enzyme was diluted with a sodium phosphate buffer (pH 7.2) containing reduced glutathione (2.5 mM) and EDTA (1 mM), DMSO or a DMSO solution of a test compound (final concentration of DMSO was 1%) was added to the enzyme, and the mixture was preincubated at 4° C. for 15 minutes. Then, PGH2 as the substrate was added at a final concentration of 1 μM to start the enzymatic reaction, and after incubation at 4° C. for 4 minutes, a solution of ferric chloride (25 mM) and citric acid (50 mM) was added to terminate the enzymatic reaction. Generated PGE2 was measured by using Prostaglandin E2 Express EIA Kit (Cayman Chemical). IC50 values were determined by using a standard method.

[2] = Blood concentration (plasma pharmacokinetics after oral administration); type: in vivo; conditions: female, guinea pig, guinea pigs, oral 10 mg/kg, mean (n = 2)
Method: The compound of Example 1 and the compound disclosed in International Patent Publication WO2017/73709, Example 182 were weighed in an amount of 10 mg each for a dose of 10 mg/kg, and each compound was finely ground in an agate mortar for about 30 seconds. 0.5% Methyl cellulose 400 solution (Fujifilm Wako Pure Chemicals Co., Ltd.) was added small portionwise to each compound to form a suspension, finally the mortar was washed with a small volume of 0.5% MC400 solution, which was combined with the suspension, and the total volume of the suspension was made to be 10 mL with 0.5% MC400 solution. The suspension was sonicated for approximately 1 minute to prepare a 1 mg/mL solution for administration. The solution was administered to two female guinea pigs at a dose of 10 mL/kg using a flexible oral catheter (RZ-1, Nippon Clea), and blood was collected 0.5, 1, 2, 4, 6, 10, and 24 hours after the oral administration, and centrifuged to obtain plasma. Plasma concentrations of the compounds were measured by the LC-MS/MS (liquid chromatography-tandem mass spectrometry) method.

[3] = system: UGT; assay: Metabolic stability test (UGT), rat microsomes; type: in vitro ADME; conditions: Rat liver or small intestine microsomes 0.5 mg protein/mL, compound 1 μM, UDPGA 2 mM, 5 minutes at 37° C.
Method: (§1) DMSO was added to the compound of Example 1 to dissolve the compound, and then acetonitrile and water were added to prepare a test compound solution (10 μM). The test compound solution (final concentration 1 μM), a potassium phosphate buffer (pH 7.4) containing MgCl2 (9 mM) and alamethicin (25 μg/mL), and a rat or guinea pig liver or small intestine microsomal suspension were mixed (final concentration 0.5 mg protein/mL) under ice cooling. After 5 minutes of pre-incubation at 37° C. with stirring, a UDPGA solution (final concentration 2 mM) was added to initiate the reaction. After 5 minutes of incubation at 37° C. with stirring, 3-fold volume of acetonitrile was added, and the resulting mixture was stirred to terminate the enzymatic reaction. The reaction mixture was centrifuged (1500×g, 10 minutes, 4° C.), and the supernatant was mixed with an internal standard solution to prepare a measurement sample. The concentration of the compound in the sample was determined by LC-MS/MS. A sample in which the enzymatic reaction was not allowed was separately prepared, and the concentration measured for this sample was used as the initial value. For comparison, the compound of International Publication WO2017/73709, Example 182 was tested in the same manner.

[4] = system: UGT; assay: Metabolic stability test (UGT), guinea pig microsomes; type: in vitro ADME; conditions: Guinea pig liver or small intestine microsomes 0.5 mg protein/mL, compound 1 μM, UDPGA 2 mM, 5 minutes at 37° C.
Method: as §1

[5] = Solubility test; type: physicochemical; conditions: aqueous buffer, kinetic from dmso stock; JP2 solution (pH 6.8), 10 mM DMSO solution diluted 50-fold, incubation 16 to 24 hours
Method: A 10 mM solution of the compound of Example 1 in DMSO was prepared, and diluted 50-fold with JP2 solution (pH 6.8). After incubation for 16 to 24 hours, the test solution was filtered, and the concentration of the compound in the filtrate was determined by HPLC-UV or with a plate reader. For comparison, the compound of International Patent Publication WO2017/73709, Example 182 was tested in the same manner.

IC50 [1]: 1.8 nM
AUC(0-inf) [2]: 62.1 µM·h
AUC(0-t) [2]: 42.4 µM·h
Cmax [2]: 5.63 µM
Tmax [2]: 1.5 h
half-life [2]: 13.3 h
MRT inf ([2]; read-out: MRT0-∞): 18.3 h
UGT metabolic stability [3]: 124 μL/min/mg protein
UGT metabolic stability [4]: 130 μL/min/mg protein
solubility [5]: > 110 µg/mL
SMILES: CC(C)(F)C(=O)NCc1ccc(C(F)(F)F)c(-c2nc(-c3ccc(C(F)(F)F)cn3)cc(=O)[nH]2)c1F [Example 1, 2-Fluoro-N-(2-fluoro-3-{6-oxo-4-[5-(trifluoromethyl)pyridin-2-yl]-1,6-dihydropyrimidin-2-yl}-4-(trifluoromethyl)benzyl)-2-methylpropanamide]
